Measured values: ChEMBL document CHEMBL5291721, “A preclinical secondary pharmacology resource illuminates target-adverse drug reaction associations of marketed drugs” (Nat Commun, 2023)

Experiments:
[1] = target: T1, 5-hydroxytryptamine receptor 1A (Homo sapiens, UniProt P08908); type: functional, cell-based
T1 sequence (P08908 whole entry): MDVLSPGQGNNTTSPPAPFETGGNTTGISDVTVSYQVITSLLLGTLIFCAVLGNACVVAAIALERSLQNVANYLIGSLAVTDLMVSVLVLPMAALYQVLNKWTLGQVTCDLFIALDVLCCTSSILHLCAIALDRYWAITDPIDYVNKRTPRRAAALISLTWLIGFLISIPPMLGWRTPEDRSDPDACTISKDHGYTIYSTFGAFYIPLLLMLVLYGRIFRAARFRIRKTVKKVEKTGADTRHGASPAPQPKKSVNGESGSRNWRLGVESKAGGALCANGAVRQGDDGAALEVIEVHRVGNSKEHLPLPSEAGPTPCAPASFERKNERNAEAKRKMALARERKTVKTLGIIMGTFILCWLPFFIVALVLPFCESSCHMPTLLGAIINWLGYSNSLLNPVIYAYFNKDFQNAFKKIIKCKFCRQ

D(1A) dopamine receptor = D(1A) dopamine receptor (Homo sapiens, UniProt P21728); type: functional, cell-based
[2] = target: T2, Alpha-2A adrenergic receptor (Homo sapiens, UniProt P08913); type: functional, cell-based
T2 sequence (P08913 whole entry): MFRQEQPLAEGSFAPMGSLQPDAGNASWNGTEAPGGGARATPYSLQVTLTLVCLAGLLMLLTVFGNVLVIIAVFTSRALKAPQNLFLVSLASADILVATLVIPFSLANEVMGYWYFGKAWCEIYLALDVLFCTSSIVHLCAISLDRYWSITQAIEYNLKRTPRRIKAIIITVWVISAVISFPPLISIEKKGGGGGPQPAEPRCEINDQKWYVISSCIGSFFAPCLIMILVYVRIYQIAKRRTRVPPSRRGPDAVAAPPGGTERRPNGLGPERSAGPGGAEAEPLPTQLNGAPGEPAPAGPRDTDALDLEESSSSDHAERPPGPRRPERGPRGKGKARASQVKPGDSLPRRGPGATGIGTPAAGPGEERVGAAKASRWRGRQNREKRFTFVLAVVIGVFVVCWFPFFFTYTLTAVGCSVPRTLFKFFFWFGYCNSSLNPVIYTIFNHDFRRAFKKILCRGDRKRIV

[3] = target: T3, Equilibrative nucleoside transporter 1 (Homo sapiens, UniProt Q99808)
T3 sequence (Q99808 whole entry): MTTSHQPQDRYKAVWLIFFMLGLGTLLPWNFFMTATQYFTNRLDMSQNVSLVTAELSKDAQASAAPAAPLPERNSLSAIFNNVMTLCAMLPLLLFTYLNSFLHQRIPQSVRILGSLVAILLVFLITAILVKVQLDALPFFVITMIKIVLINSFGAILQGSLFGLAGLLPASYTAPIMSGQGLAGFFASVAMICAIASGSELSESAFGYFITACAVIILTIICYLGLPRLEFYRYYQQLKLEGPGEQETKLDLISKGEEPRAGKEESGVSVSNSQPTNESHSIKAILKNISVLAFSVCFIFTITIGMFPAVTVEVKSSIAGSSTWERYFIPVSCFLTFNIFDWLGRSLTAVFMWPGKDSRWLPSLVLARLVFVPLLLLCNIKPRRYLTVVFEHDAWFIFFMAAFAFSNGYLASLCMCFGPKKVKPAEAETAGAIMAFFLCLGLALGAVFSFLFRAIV

[4] = target: T4, Cholecystokinin receptor type A (Homo sapiens, UniProt P32238)
T4 sequence (P32238 whole entry): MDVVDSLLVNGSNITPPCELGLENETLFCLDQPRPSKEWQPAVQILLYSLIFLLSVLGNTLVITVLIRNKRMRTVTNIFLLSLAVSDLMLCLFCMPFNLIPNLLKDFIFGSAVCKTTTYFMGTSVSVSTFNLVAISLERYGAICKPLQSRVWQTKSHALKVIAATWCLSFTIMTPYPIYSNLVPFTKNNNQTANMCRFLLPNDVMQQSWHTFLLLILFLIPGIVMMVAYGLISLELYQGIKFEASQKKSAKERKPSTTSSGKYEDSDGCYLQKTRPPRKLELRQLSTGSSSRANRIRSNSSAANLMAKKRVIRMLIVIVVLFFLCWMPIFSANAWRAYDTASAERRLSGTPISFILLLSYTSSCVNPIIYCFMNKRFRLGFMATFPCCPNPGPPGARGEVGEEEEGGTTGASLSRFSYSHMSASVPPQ

[5] = target: 5-hydroxytryptamine receptor 2B (Homo sapiens, UniProt P41595); type: functional, cell-based
[6] = target: Gamma-aminobutyric acid receptor subunit alpha-1 (Rattus norvegicus, UniProt P62813); type: functional
[7] = target: T5, 5-hydroxytryptamine receptor 2C (Homo sapiens, UniProt P28335)
T5 sequence (P28335 whole entry): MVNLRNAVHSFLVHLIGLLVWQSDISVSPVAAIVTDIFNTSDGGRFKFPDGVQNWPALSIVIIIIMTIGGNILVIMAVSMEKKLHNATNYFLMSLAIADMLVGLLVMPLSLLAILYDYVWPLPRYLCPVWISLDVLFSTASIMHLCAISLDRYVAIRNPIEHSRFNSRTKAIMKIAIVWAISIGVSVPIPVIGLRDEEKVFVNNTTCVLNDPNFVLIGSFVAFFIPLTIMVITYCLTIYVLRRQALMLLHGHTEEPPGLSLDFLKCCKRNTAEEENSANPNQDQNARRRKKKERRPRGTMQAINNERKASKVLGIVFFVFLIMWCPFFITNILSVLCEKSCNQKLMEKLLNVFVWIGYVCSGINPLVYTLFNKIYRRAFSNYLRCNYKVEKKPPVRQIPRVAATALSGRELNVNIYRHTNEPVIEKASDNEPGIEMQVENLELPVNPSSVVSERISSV

[8] = target: Growth hormone secretagogue receptor type 1 (Homo sapiens, UniProt Q92847)
Adenosine receptor A2a = Adenosine receptor A2a (Homo sapiens, UniProt P29274)
Also: assay procedure not described here.

Sequence of Adenosine receptor A2a (P29274 whole entry): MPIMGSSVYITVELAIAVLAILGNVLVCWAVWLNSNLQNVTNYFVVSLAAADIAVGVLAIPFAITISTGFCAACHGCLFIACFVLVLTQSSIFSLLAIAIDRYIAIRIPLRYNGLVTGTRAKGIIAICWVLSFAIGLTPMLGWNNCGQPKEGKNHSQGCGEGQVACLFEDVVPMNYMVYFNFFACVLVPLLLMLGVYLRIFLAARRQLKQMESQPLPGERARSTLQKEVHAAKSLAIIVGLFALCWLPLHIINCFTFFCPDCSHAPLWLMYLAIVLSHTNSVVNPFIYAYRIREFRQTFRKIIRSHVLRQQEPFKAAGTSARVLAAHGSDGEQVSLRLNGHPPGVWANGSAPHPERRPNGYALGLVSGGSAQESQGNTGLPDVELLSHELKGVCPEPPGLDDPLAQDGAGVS
Sequence of D(1A) dopamine receptor (P21728 whole entry): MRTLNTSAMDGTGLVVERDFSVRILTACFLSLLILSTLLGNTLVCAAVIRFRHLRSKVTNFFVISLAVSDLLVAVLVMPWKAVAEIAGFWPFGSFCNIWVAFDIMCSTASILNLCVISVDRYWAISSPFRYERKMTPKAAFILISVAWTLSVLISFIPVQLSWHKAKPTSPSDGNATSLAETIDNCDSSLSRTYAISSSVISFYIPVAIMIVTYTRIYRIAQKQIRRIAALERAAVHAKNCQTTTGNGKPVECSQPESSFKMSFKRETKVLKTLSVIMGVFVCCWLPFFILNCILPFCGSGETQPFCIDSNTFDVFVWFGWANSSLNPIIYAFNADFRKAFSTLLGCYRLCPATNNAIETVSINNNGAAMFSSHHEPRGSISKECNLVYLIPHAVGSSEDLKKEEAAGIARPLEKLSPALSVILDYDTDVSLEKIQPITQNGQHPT
Sequence of 5-hydroxytryptamine receptor 2B (P41595 whole entry): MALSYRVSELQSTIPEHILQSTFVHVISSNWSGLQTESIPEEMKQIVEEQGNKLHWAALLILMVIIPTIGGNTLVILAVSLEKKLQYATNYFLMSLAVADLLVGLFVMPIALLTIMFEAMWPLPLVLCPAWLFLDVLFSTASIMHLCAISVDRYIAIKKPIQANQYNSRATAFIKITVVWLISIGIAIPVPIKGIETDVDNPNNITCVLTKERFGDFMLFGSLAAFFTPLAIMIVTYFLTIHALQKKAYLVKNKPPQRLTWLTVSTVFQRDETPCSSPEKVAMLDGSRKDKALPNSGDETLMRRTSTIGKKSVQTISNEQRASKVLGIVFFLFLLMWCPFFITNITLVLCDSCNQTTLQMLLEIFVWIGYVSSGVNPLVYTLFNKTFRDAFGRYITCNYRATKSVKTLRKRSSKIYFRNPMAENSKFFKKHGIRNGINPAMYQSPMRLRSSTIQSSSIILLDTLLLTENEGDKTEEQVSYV
Sequence of Growth hormone secretagogue receptor type 1 (Q92847 whole entry): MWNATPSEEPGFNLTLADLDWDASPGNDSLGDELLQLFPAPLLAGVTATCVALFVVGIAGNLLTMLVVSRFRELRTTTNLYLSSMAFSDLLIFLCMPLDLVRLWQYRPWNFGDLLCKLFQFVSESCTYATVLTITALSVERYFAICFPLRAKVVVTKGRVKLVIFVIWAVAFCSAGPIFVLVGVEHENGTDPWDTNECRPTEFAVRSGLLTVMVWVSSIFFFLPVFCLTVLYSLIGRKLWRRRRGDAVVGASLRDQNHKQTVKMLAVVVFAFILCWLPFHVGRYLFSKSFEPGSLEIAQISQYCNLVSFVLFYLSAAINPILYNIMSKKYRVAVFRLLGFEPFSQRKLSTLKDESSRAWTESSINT
Sequence of Gamma-aminobutyric acid receptor subunit alpha-1 (P62813 whole entry): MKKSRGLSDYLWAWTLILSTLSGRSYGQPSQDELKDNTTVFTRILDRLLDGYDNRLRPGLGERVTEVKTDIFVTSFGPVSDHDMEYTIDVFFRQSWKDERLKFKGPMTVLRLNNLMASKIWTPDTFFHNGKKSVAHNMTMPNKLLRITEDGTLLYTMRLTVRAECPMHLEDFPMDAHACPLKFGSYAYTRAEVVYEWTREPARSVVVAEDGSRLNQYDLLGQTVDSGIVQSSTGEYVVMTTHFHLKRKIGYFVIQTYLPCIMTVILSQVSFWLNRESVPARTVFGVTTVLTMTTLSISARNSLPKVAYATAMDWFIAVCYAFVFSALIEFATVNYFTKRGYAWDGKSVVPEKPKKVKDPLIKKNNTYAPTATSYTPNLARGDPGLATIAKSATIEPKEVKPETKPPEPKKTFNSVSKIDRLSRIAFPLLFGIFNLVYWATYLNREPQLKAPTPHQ

Structure (SMILES)	AC50 [1]	AC50 (D(1A) dopamine receptor)	AC50 [2]	AC50 [3]	AC50 [4]	AC50 [5]	AC50 [6]	AC50 [7]	AC50 [8]	AC50 (Adenosine receptor A2a)
COc1cc2c(cc1OC)C1CC(=O)C(CC(C)C)CN1CC2 (stereo not given) [TETRABENAZINE]	18 µM	> 30 µM	18 µM	> 30 µM	> 30 µM	8.6 µM	> 30 µM	> 30 µM	> 30 µM	> 30 µM
CCOC(=O)[C@H](CCc1ccccc1)N[C@@H](C)C(=O)N1Cc2ccccc2C[C@H]1C(=O)O	> 10 µM	> 10 µM	> 10 µM	> 30 µM	> 30 µM	> 10 µM	> 10 µM	> 10 µM	> 30 µM	> 30 µM
O=C(O)[C@H]1/C(=C/CO)O[C@@H]2CC(=O)N21 [CLAVULANIC ACID]	> 30 µM	> 30 µM	> 30 µM	> 30 µM	> 30 µM	> 30 µM	> 30 µM	> 30 µM	> 30 µM	> 30 µM
Cc1c(C)c2c(c(C)c1O)CCC(C)(COc1ccc(CC3SC(=O)NC3=O)cc1)O2 (stereo not given) [TROGLITAZONE]	> 30 µM	> 30 µM	> 30 µM	> 30 µM	> 30 µM	2 µM	> 30 µM	> 30 µM	> 30 µM	> 30 µM
C[C@H](CCC(=O)O)[C@H]1CC[C@H]2[C@@H]3[C@H](O)C[C@@H]4C[C@H](O)CC[C@]4(C)[C@H]3CC[C@]12C [CHENODIOL]	> 30 µM	> 30 µM	3 µM	> 30 µM	> 30 µM	> 30 µM	> 30 µM	> 30 µM	> 30 µM	> 30 µM
N[C@@H](Cc1cc(I)c(Oc2cc(I)c(O)c(I)c2)c(I)c1)C(=O)O [LEVOTHYROXINE]	> 30 µM	> 30 µM	> 30 µM	> 30 µM	> 30 µM	> 30 µM	> 30 µM	> 30 µM	> 30 µM	> 30 µM
CN(C)CCOC(c1ccc(Cl)cc1)c1ccccn1 (stereo not given) [CARBINOXAMINE]	> 30 µM	> 30 µM	> 30 µM	> 30 µM	> 30 µM	> 30 µM	> 30 µM	> 30 µM	> 30 µM	> 30 µM
c1cnc2cc3c(cc2n1)[C@@H]1CNC[C@H]3C1 [VARENICLINE]	> 30 µM	> 30 µM	> 30 µM	> 30 µM	> 30 µM	> 30 µM	> 30 µM	> 30 µM	> 30 µM	> 30 µM
CC(=O)Oc1ccccc1C(=O)O [ASPIRIN]	> 10 µM	> 10 µM	> 10 µM	> 30 µM	> 30 µM	> 10 µM	> 10 µM	> 30 µM	> 30 µM	> 30 µM
C[C@H](Cn1cnc2c(N)ncnc21)OCP(=O)(O)O [TENOFOVIR ANHYDROUS]	> 30 µM	> 30 µM	> 30 µM	> 30 µM	> 30 µM	> 30 µM	> 30 µM	> 30 µM	> 30 µM	> 30 µM
C=CC1=C(C(=O)O)N2C(=O)[C@@H](NC(=O)/C(=N\O)c3csc(N)n3)[C@H]2SC1	> 10 µM	> 10 µM	> 10 µM	> 30 µM	> 30 µM	> 10 µM	> 10 µM	> 30 µM	> 30 µM	> 30 µM
CCOC(=O)Nc1ccc(NCc2ccc(F)cc2)nc1N [FLUPIRTINE]	> 30 µM	> 30 µM	23 µM	> 30 µM	> 30 µM	> 30 µM	> 30 µM	> 10 µM	> 30 µM	> 30 µM
